Test results published in patent publication US12662489B2 (Sitryx Therapeutics Limited, priority 2023, dated 2026).

Experiments:
[1] = biological target: T1, MTHFD1 recombinant human enzyme (Homo sapiens, UniProt P11586); test: MTHFD1 inhibition assay (NAD(P)H-Glo luminescence); details: MTHFD1 IC50, recombinant human enzyme 200 nM, NADP, band
T1 sequence (P11586 2-291 limits assumed): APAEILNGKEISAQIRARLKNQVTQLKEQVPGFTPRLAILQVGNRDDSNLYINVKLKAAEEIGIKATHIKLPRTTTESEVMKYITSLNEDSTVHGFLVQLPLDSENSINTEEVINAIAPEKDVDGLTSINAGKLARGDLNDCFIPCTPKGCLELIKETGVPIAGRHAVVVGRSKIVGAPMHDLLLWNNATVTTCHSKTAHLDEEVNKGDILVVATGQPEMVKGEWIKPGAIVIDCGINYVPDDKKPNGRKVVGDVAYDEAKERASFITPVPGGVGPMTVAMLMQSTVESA

[2] = biological target: T2, MTHFD2 recombinant human enzyme (Homo sapiens, UniProt P13995); test: MTHFD2 inhibition assay (NAD(P)H-Glo luminescence); details: for MTHFD1/MTHFD2 IC50 ratio: selectivity of MTHFD2 inhibition over MTHFD1, band
T2 sequence (P13995 36-350): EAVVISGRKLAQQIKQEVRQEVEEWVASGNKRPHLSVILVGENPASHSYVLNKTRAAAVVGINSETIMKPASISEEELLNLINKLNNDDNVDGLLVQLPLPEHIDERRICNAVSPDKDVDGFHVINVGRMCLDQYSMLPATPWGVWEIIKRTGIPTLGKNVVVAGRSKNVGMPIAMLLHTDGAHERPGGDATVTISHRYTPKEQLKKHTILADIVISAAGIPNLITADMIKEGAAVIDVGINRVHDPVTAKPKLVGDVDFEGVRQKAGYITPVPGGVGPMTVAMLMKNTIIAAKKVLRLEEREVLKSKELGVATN

Row | Compound | IC50 [1] [nM] | IC50 [2] [nM] | MTHFD1/MTHFD2 IC50 ratio [2]
1 | COC[C@H]1CN(c2ccc3c4c(c(=O)oc3c2C)CN(C(=O)c2cc(N3CC5CC5C3)c(C(=O)NS(=O)(=O)N(C)C)c(C(F)(F)F)c2)CC4)CCN1C (stereo partly drawn) [Example 118, 2-(3-azabicyclo[3.1.0]hexan-3-yl)-N-(N,N-dimethylsulfamoyl)-4-(8-((R)-3-(methoxymethyl)-4-methylpiperazin-1-yl)-7-methyl-5-oxo-1,3,4,5-tetrahydro-2H-chromeno[3,4-c]pyridine-3-carbonyl)-6-(trifluoromethyl)benzamide] | 1000 to 5000 | 100 to 1000 | H (>9.0 to 30)
2 | COC[C@H]1CN(c2cc(C)c3c4c(c(=O)oc3c2C)CN(C(=O)c2ccc(C(=O)NS(=O)(=O)N3CCCC3)c(N3CCCC3)c2)CC4)CCN1C [Example 96, (R)-4-(8-(3-(methoxymethyl)-4-methylpiperazin-1-yl)-7,10-dimethyl-5-oxo-1,3,4,5-tetrahydro-2H-chromeno[3,4-c]pyridine-3-carbonyl)-2-(pyrrolidin-1-yl)-N-(pyrrolidin-1-ylsulfonyl)benzamide] | 1 to 10 | 1 to 10 | G (^ 3 to 9.0)
3 | COC[C@H]1CN(c2cc(C)c3c4c(c(=O)oc3c2C)CN(C(=O)c2ccc(C(=O)NS(=O)(=O)N3C5CCC3COC5)c(OC)c2F)CC4)CCN1C [Example 158, N-((3-oxa-8-azabicyclo[3.2.1]octan-8-yl)sulfonyl)-3-fluoro-2-methoxy-4-(8-((R)-3-(methoxymethyl)-4-methylpiperazin-1-yl)-7,10-dimethyl-5-oxo-1,3,4,5-tetrahydro-2H-chromeno[3,4-c]pyridine-3-carbonyl)benzamide] | 100 to 1000 | 10 to 100 | H (>9.0 to 30)
4 | COC[C@H]1CN(c2cc(C)c3c4c(c(=O)oc3c2C)CN(C(=O)c2ccc(C(=O)NS(=O)(=O)N3CCCC3)c(OCCC(F)(F)F)c2F)CC4)CCN1C [Example 222, (R)-3-fluoro-4-(8-(3-(methoxymethyl)-4-methylpiperazin-1-yl)-7,10-dimethyl-5-oxo-1,3,4,5-tetrahydro-2H-chromeno[3,4-c]pyridine-3-carbonyl)-N-(pyrrolidin-1-ylsulfonyl)-2-(3,3,3-trifluoropropoxy)benzamide] | 10 to 100 | 1 to 10 | F (<3)
5 | COC[C@H]1CN(c2ccc3c4c(c(=O)oc3c2C)CN(C(=O)c2cc(N3CCC3)c(C(=O)NS(=O)(=O)N3CCCC3)cc2F)CC4)CCN1C [Example 194, (R)-2-(azetidin-1-yl)-5-fluoro-4-(8-(3-(methoxymethyl)-4-methylpiperazin-1-yl)-7-methyl-5-oxo-1,3,4,5-tetrahydro-2H-chromeno[3,4-c]pyridine-3-carbonyl)-N-(pyrrolidin-1-ylsulfonyl)benzamide] | 100 to 1000 | 10 to 100 | G (^ 3 to 9.0)
6 | COC[C@H]1CN(c2cc(C)c3c4c(c(=O)oc3c2C)CN(C(=O)c2ccc(C(=O)NS(=O)(=O)N(C)C)c(N3CC5CC5C3)c2)CC4)CCN1C (stereo partly drawn) [Example 47, 2-(3-azabicyclo[3.1.0]hexan-3-yl)-N-(N,N-dimethylsulfamoyl)-4-(8-((R)-3-(methoxymethyl)-4-methylpiperazin-1-yl)-7,10-dimethyl-5-oxo-1,3,4,5-tetrahydro-2H-chromeno[3,4-c]pyridine-3-carbonyl)benzamide] | 1 to 10 | 1 to 10 | G (^ 3 to 9.0)
7 | CCOc1c(C(=O)NS(=O)(=O)N2CC3CC3C2)ccc(C(=O)N2CCc3c(c(=O)oc4c(Cl)c(N5CCN(C)[C@@H](COC)C5)ccc34)C2)c1F (stereo partly drawn) [Example 208, N-((3-azabicyclo[3.1.0]hexan-3-yl)sulfonyl)-4-(7-chloro-8-((R)-3-(methoxymethyl)-4-methylpiperazin-1-yl)-5-oxo-1,3,4,5-tetrahydro-2H-chromeno[3,4-c]pyridine-3-carbonyl)-2-ethoxy-3-fluorobenzamide] | 10 to 100 | 10 to 100 | F (<3)
8 | COC[C@H]1CN(c2cc(C)c3c4c(c(=O)oc3c2C)CN(C(=O)c2ccc(C(=O)NS(=O)(=O)C3(C)CC3)c(OC3CCC3)c2F)CC4)CCN1C [Example 41, (R)-2-cyclobutoxy-3-fluoro-4-(8-(3-(methoxymethyl)-4-methylpiperazin-1-yl)-7,10-dimethyl-5-oxo-1,3,4,5-tetrahydro-2H-chromeno[3,4-c]pyridine-3-carbonyl)-N-((1-methylcyclopropyl)sulfonyl)benzamide] | 1 to 10 | 1 to 10 | G (^ 3 to 9.0)
9 | CCOc1cc(C(=O)N2CCc3c(c(=O)oc4c(C)c(N5CCN(C)[C@@H](COC)C5)cc(Cl)c34)C2)c(F)cc1C(=O)NS(=O)(=O)N(C)C1CC1 [Example 298, (R)-4-(10-chloro-8-(3-(methoxymethyl)-4-methylpiperazin-1-yl)-7-methyl-5-oxo-1,3,4,5-tetrahydro-2H-chromeno[3,4-c]pyridine-3-carbonyl)-N-(N-cyclopropyl-N-methylsulfamoyl)-2-ethoxy-5-fluorobenzamide] | 100 to 1000 | 10 to 100 | G (^ 3 to 9.0)
10 | COC[C@H]1CN(c2cc(C)c3c4c(c(=O)oc3c2C)CN(C(=O)c2cc(N3CCCC3)c(C(=O)NS(=O)(=O)N3CCCC3)cc2F)CC4)CCN1C [Example 141, (R)-5-fluoro-4-(8-(3-(methoxymethyl)-4-methylpiperazin-1-yl)-7,10-dimethyl-5-oxo-1,3,4,5-tetrahydro-2H-chromeno[3,4-c]pyridine-3-carbonyl)-2-(pyrrolidin-1-yl)-N-(pyrrolidin-1-ylsulfonyl)benzamide] | 10 to 100 | 10 to 100 | F (<3)
11 | COC[C@H]1CN(c2cc(C)c3c4c(c(=O)oc3c2C)CN(C(=O)c2ccc(C(=O)NS(=O)(=O)N3CCC(F)CC3)cc2F)CC4)CCN1C [Example 204, (R)-3-fluoro-N-((4-fluoropiperidin-1-yl)sulfonyl)-4-(8-(3-(methoxymethyl)-4-methylpiperazin-1-yl)-7,10-dimethyl-5-oxo-1,3,4,5-tetrahydro-2H-chromeno[3,4-c]pyridine-3-carbonyl)benzamide] | 1000 to 5000 | 10 to 100 | J (>30)
12 | COC[C@H]1CN(c2cc(C)c3c4c(c(=O)oc3c2C)CN(C(=O)c2ccc(C(=O)NS(=O)(=O)C3(C)CC3)c(OC3CCC3)c2C)CC4)CCN1C [Example 180, (R)-2-cyclobutoxy-4-(8-(3-(methoxymethyl)-4-methylpiperazin-1-yl)-7,10-dimethyl-5-oxo-1,3,4,5-tetrahydro-2H-chromeno[3,4-c]pyridine-3-carbonyl)-3-methyl-N-((1-methylcyclopropyl)sulfonyl)benzamide] | 100 to 1000 | 10 to 100 | G (^ 3 to 9.0)
13 | [2H]C([2H])([2H])Oc1c(C(=O)NS(=O)(=O)N2C3CCC2CC3)ccc(C(=O)N2CCc3c(c(=O)oc4c(C)c(N5CCN(C)[C@@H](COC)C5)cc(C)c34)C2)c1F [Example 252, (R)-N-((7-azabicyclo[2.2.1]heptan-7-yl)sulfonyl)-3-fluoro-2-(methoxy-d3)-4-(8-(3-(methoxymethyl)-4-methylpiperazin-1-yl)-7,10-dimethyl-5-oxo-1,3,4,5-tetrahydro-2H-chromeno[3,4-c]pyridine-3-carbonyl)benzamide] | 100 to 1000 | 1 to 10 | J (>30)
